From patent publication US20110065723A1, “COMPOSITIONS OF N-BENZYL-3-(4-CHLOROPHENYL)-2-[METHYL-[2-OXO-2-(3,4,5-TRIMETHOXYPHENYL)ACETYL]AMINO]-N-[3-(4-PYRIDYL)-1-[2-(4-PYRIDYL)ETHYL]PROPYL]PROPANAMIDE AND USES THEREOF” (priority 2009, published 2011)

Columns and labels:
Mtb Erdman = assay: Mouse infection model (lung CFU); type: in vivo, C57BL/6 mice; settings: mice, lungs; TIM 200, INH 25 mg/kg; 4 weeks; FIG. 4B; not to the same extent as RIF, statistically significant
[1] = test system: Mycobacterium tuberculosis Erdman strain (Mtb ATCC 35801); assay: Susceptibility testing (broth microdilution MIC) with or without TIM; type: cell-based; settings: TIM 10 μg/ml
in vivo = settings: C57BL/6, mouse, po, 10 mg/kg; for AUC(0-inf): RIF AUCinf Plasma; for Cmax: RIF Cmax Plasma
[2] = test system: Mycobacterium tuberculosis Erdman strain in macrophages; assay: Mtb-THP-1 macrophage infection screening assay; type: cell-based
[3] = RIF 10 mg/kg + TIM 200 mg/kg dosed 6 hours prior to RIF

NNC(=O)c1ccncc1 [Isoniazid, isoniazid]
effect of TIM on activity in vivo (Mtb Erdman): does enhance INH activity in vivo
in vitro effect of TIM on the activity of the drug against Mtb [1]: no in vitro effect

CC(=O)NC[C@H]1CN(c2ccc(N3CCOCC3)c(F)c2)C(=O)O1 [Linezolid]
in vitro effect of TIM on the activity of the drug against Mtb [1]: no in vitro effect

CO[C@H]1/C=C/O[C@@]2(C)Oc3c(C)c(O)c4c(O)c(c(/C=N/N5CCN(C)CC5)c(O)c4c3C2=O)NC(=O)/C(C)=C\C=C\[C@H](C)[C@H](O)[C@@H](C)[C@@H](O)[C@@H](C)[C@H](OC(C)=O)[C@@H]1C [RIF, rifampicin]
AUC(0-inf) (in vivo; [3]): 153 µg·h/mL
AUC(0-inf) (in vivo; RIF 10 mg/kg alone): 152 µg·h/mL
Cmax (in vivo; [3]): 14900 ng/mL
Cmax (in vivo; RIF 10 mg/kg alone): 19800 ng/mL
Log10 CFU ([2]; Drug conc. 0.04 ug/mL): 4.71 Log10 CFU
Log10 CFU ([2]; Drug conc. 0.1 ug/mL): 4.47 Log10 CFU
Log10 CFU ([2]; Drug conc. 0.4 ug/mL): 4.58 Log10 CFU
Log10 CFU ([2]; Drug conc. 1.1 ug/mL): 3.98 Log10 CFU
Log10 CFU ([2]; Drug conc. 3.3 ug/mL): 1.94 Log10 CFU
Log10 CFU ([2]; Drug conc. 10 ug/mL): 2.12 Log10 CFU
Log10 CFU ([2]; Drug conc. 30 ug/mL): 1.10 Log10 CFU

CO[C@H]1/C=C/O[C@@]2(C)Oc3c(C)c(O)c4c(O)c(c(/C=N/N5CCN(C6CCCC6)CC5)c(O)c4c3C2=O)NC(=O)/C(C)=C\C=C\[C@H](C)[C@H](O)[C@@H](C)[C@@H](O)[C@@H](C)[C@H](OC(C)=O)[C@@H]1C [Rifapentine, rifapentine]
in vitro effect of TIM on the activity of the drug against Mtb [1]: no in vitro effect

COc1nc2ccc(Br)cc2cc1[C@@H](c1ccccc1)[C@@](O)(CCN(C)C)c1cccc2ccccc12 [TMC-207]
potentiating effect of TIM on the activity against Mtb ([1]; MIC without vs with TIM): 15 fold

CC(=O)NC[C@H]1CN(c2ccc(N3CCSCC3)c(F)c2)C(=O)O1 [U-100480]
in vitro effect of TIM on the activity of the drug against Mtb [1]: no in vitro effect

CCc1cc(C(N)=S)ccn1 [ethionamide]
in vitro effect of TIM on the activity of the drug against Mtb [1]: no in vitro effect

COc1c(N2CCNC(C)C2)c(F)cc2c(=O)c(C(=O)O)cn(C3CC3)c12 (centres unmarked) [gatifloxacin]
in vitro effect of TIM on the activity of the drug against Mtb [1]: no in vitro effect

acriflavin
in vitro effect of TIM on the activity of the drug against Mtb [1]: no in vitro effect
